Experimental data from US6841519B1, “Isoxazoline derivatives and herbicides containing the same as the active ingredient” (Kumiai Chemical Industry Co., Ltd., priority 1999, dated 2005).

How the values were obtained:
Assay type in all cases: in vivo
[1] = tested on: Echinochloa oryzicola Vasing. (Eo); assay: Test for herbicidal effect by paddy field soil treatment (Test Example 1); settings: application amount (active ingredient) 100 g/10 a, examined at the 21st day from the treatment, index per Table 40
Protocol: <Test Example 1> Test For Herbicidal Effect By Paddy Field Soil Treatment A paddy field soil was filled in a plastic pot of 100 cm^2 and subjected to puddling. Then, seeds of Echinochloa oryzicola Vasing. (Eo) were sowed and water was filled in a depth of 3 cm. Next day, wettable powders produced in accordance with the Formulation 1 were diluted with water and dropped on the water surface. The application amount of each wettable powder was 100 g per 10 ares in terms of the active ingredient. Then, breeding was made in a greenhouse, and the herbicidal effect of each wettable powder was examined at the 21st day from the treatment in accordance with the standard shown in Table 40. [table]

[2] = tested on: Echinochloa crus-galli (L.) Beauv. var. crusgall (Ec); assay: Test for herbicidal effect by upland field soil treatment (Test Example 2), Ec
Protocol: (§1) [table] <Test Example 2> Test For Herbicidal Effect By Upland Field Soil Treatment An upland field soil was filed in a plastic pot of 80 cm^2. Seeds of Echinochloa crus-galli (L.) Beauv. var. crusgall (Ec) and Setaria viridis (L.) Beauv. (Se) were sowed, followed by covering with the same soil. Wettable powders produced in accordance with the Formulation 1 were diluted with water and sprayed uniformly: on the soil surface using a small sprayer, in an amount of 100 liters per 10 ares so that the amount of each active ingredient became 100 g per 10 ares. Then, breeding was made in a greenhouse, and the herbicidal effect of each wettable powder was examined at the 21st day from the treatment in accordance with the standard shown in Table 40.

[3] = tested on: Echinochloa crus-galli (L.) Beauv. var. crusgalli (Ec); assay: Test for herbicidal effect by upland foliage treatment (Test Example 3); settings: 100 g/10 a active ingredient, examined at 14th day
Protocol: Test For Herbicidal Effect By Upland Foliage Treatment
An upland field soil was filed in a plastic pot of 80 cm^2. Seeds of Echinochloa crus-galli (L.) Beauv. var. crusgalli (Ec) were sowed. Breeding was made in a greenhouse for 2 weeks. Wettable powders produced in accordance with the Formulation 1 were diluted with water and sprayed on the whole foliage of plants from above the plants using a small sprayer in an amount of 100 liters per 10 ares so that the amount of each active ingredient became 100 g per 10 ares. Then, breeding was made in the greenhouse, and the herbicidal effect of each wettable powder was examined at the 14th day from the treatment in accordance with the standard shown in Table 40.

[4] = tested on: Setaria viridis (L.) Beauv. (Se); assay: Test for herbicidal effect by upland field soil treatment (Test Example 2), Se
Protocol: as §1

[5] = 100 g/10 a active ingredient, examined at 21st day
[6] = application amount (active ingredient) 100 g/10 a, examined at the 21st day from the treatment, index per Table 40

Structure (SMILES)	Herbicidal effect to Eo [1]	Herbicidal effect to Ec [2, 5]	Herbicidal effect to Ec [3]	Herbicidal effect to Se [4, 5]	Herbicidal effect to Ec [2, 6]	Herbicidal effect to Se [4, 6]
CC1(C)CC(S(=O)(=O)Cc2ccccc2S(=O)(=O)C(F)(F)F)=NO1 [Compound 1-517]	5 (A herbicidal effect or phytotoxicity of 90% or more)	5 (A herbicidal effect or phytotoxicity of 90% or more)	5 (A herbicidal effect or phytotoxicity of 90% or more)	5 (A herbicidal effect or phytotoxicity of 90% or more)		
CCOC(=O)c1ccccc1CS(=O)(=O)C1=NOC(C)(C)C1 [Compound 1-593]	5 (A herbicidal effect or phytotoxicity of 90% or more)	5 (A herbicidal effect or phytotoxicity of 90% or more)	4 (A herbicidal effect or phytotoxicity of 70% to less than 90%)	4 (A herbicidal effect or phytotoxicity of 70% to less than 90%)		
CC1(C)CC(S(=O)(=O)Cc2ccccc2Br)=NO1 [Compound 1-35]	5 (A herbicidal effect or phytotoxicity of 90% or more)		4 (A herbicidal effect or phytotoxicity of 70% to less than 90%)		5 (A herbicidal effect or phytotoxicity of 90% or more)	5 (A herbicidal effect or phytotoxicity of 90% or more)
CC1(C)CC(S(=O)(=O)Cc2ccc(F)c(C(F)(F)F)c2)=NO1 [Compound 1-541]	5 (A herbicidal effect or phytotoxicity of 90% or more)	5 (A herbicidal effect or phytotoxicity of 90% or more)	4 (A herbicidal effect or phytotoxicity of 70% to less than 90%)	5 (A herbicidal effect or phytotoxicity of 90% or more)		
CCC1(C)CC(S(=O)(=O)Cc2ccccc2C(F)(F)F)=NO1 (stereo not drawn) [Compound 1-336]	5 (A herbicidal effect or phytotoxicity of 90% or more)		5 (A herbicidal effect or phytotoxicity of 90% or more)		5 (A herbicidal effect or phytotoxicity of 90% or more)	5 (A herbicidal effect or phytotoxicity of 90% or more)
CCC1(CC)CC(S(=O)(=O)Cc2c(F)cccc2F)=NO1 [Compound 1-364]	5 (A herbicidal effect or phytotoxicity of 90% or more)		4 (A herbicidal effect or phytotoxicity of 70% to less than 90%)		5 (A herbicidal effect or phytotoxicity of 90% or more)	5 (A herbicidal effect or phytotoxicity of 90% or more)
CCC1(C)CC(S(=O)(=O)Cc2cccc(C)c2)=NO1 (stereo not drawn) [Compound 1-202]	5 (A herbicidal effect or phytotoxicity of 90% or more)		4 (A herbicidal effect or phytotoxicity of 70% to less than 90%)		5 (A herbicidal effect or phytotoxicity of 90% or more)	4 (A herbicidal effect or phytotoxicity of 70% to less than 90%)
Cc1ccc(C)c(CS(=O)(=O)C2=NOC(C)(C)C2)c1 [Compound 1-512]	5 (A herbicidal effect or phytotoxicity of 90% or more)	5 (A herbicidal effect or phytotoxicity of 90% or more)	5 (A herbicidal effect or phytotoxicity of 90% or more)	5 (A herbicidal effect or phytotoxicity of 90% or more)		
CC1C(S(=O)(=O)Cc2c(F)cccc2F)=NOC1(C)C (stereo not drawn) [Compound 1-495]	5 (A herbicidal effect or phytotoxicity of 90% or more)		5 (A herbicidal effect or phytotoxicity of 90% or more)		5 (A herbicidal effect or phytotoxicity of 90% or more)	5 (A herbicidal effect or phytotoxicity of 90% or more)
CCC1(C)CC([S+]([O-])Cc2c(F)cccc2F)=NO1 (stereo not drawn) [Compound 1-199, 5-ethyl-3-(2,6-difluorobenzylsulfinyl)-5-methyl-2-isoxazoline]	5 (A herbicidal effect or phytotoxicity of 90% or more)		4 (A herbicidal effect or phytotoxicity of 70% to less than 90%)		5 (A herbicidal effect or phytotoxicity of 90% or more)	5 (A herbicidal effect or phytotoxicity of 90% or more)
Cc1ccc(CS(=O)(=O)C2=NOC(C)(C)C2)c(C)c1 [Compound 1-511]	5 (A herbicidal effect or phytotoxicity of 90% or more)	5 (A herbicidal effect or phytotoxicity of 90% or more)	5 (A herbicidal effect or phytotoxicity of 90% or more)	5 (A herbicidal effect or phytotoxicity of 90% or more)		
CCCc1cccc(F)c1CS(=O)(=O)C1=NOC(C)(C)C1 [Compound 1-553]	5 (A herbicidal effect or phytotoxicity of 90% or more)	5 (A herbicidal effect or phytotoxicity of 90% or more)	5 (A herbicidal effect or phytotoxicity of 90% or more)	5 (A herbicidal effect or phytotoxicity of 90% or more)		
COc1ccccc1CS(=O)(=O)C1=NOC(C)(C)C1 [Compound 1-40]	5 (A herbicidal effect or phytotoxicity of 90% or more)		5 (A herbicidal effect or phytotoxicity of 90% or more)		5 (A herbicidal effect or phytotoxicity of 90% or more)	5 (A herbicidal effect or phytotoxicity of 90% or more)
CCOc1cccc(OCC)c1CS(=O)(=O)C1=NOC(C)(C)C1 [Compound 1-536]	5 (A herbicidal effect or phytotoxicity of 90% or more)	5 (A herbicidal effect or phytotoxicity of 90% or more)	4 (A herbicidal effect or phytotoxicity of 70% to less than 90%)	5 (A herbicidal effect or phytotoxicity of 90% or more)		
CC1(C)CC(S(=O)(=O)Cc2ccccc2I)=NO1 [Compound 1-521]	5 (A herbicidal effect or phytotoxicity of 90% or more)	5 (A herbicidal effect or phytotoxicity of 90% or more)	5 (A herbicidal effect or phytotoxicity of 90% or more)	5 (A herbicidal effect or phytotoxicity of 90% or more)		
C#CCOc1cccc(C)c1CS(=O)(=O)C1=NOC(C)(C)C1 [Compound 1-607]	5 (A herbicidal effect or phytotoxicity of 90% or more)	5 (A herbicidal effect or phytotoxicity of 90% or more)	5 (A herbicidal effect or phytotoxicity of 90% or more)	5 (A herbicidal effect or phytotoxicity of 90% or more)		
CC1(C)CC(S(=O)(=O)Cc2cccc(F)c2F)=NO1 [Compound 1-504]	5 (A herbicidal effect or phytotoxicity of 90% or more)	5 (A herbicidal effect or phytotoxicity of 90% or more)	5 (A herbicidal effect or phytotoxicity of 90% or more)	5 (A herbicidal effect or phytotoxicity of 90% or more)		
CC1(C)CC(S(=O)(=O)Cc2cccc(C(F)(F)F)c2F)=NO1 [Compound 1-515]	5 (A herbicidal effect or phytotoxicity of 90% or more)	5 (A herbicidal effect or phytotoxicity of 90% or more)	5 (A herbicidal effect or phytotoxicity of 90% or more)	5 (A herbicidal effect or phytotoxicity of 90% or more)		
